Measured values reported in US9034303B2, “Neuroprotective and neuro-restorative iron chelators and monoamine oxidase inhibitors and uses thereof” (priority 2010, dated 2015).
Entries after “also recorded” stand apart in the source; their conditions may differ. Where two headings read alike, the source gives them in different places.

Experiments:
[1] = Stability in aqueous solution (PBS or saline) followed by HPLC; format: physicochemical; settings: for Amount of compound remaining (%): 25° C., 0.5 mM
Procedure: Using high pressure liquid chromatography (HPLC), the stability of each of the tested compounds was determined by following its respective chemical character over time in either phosphate buffered saline (PBS) and/or 0.85% saline solution (sodium chloride). In each case, 0.5 mM of the tested compound in PBS or saline solution was incubated at 25° C. or at 37° C. for 20 hours or, in some cases, up to two days (48 hours).

[2] = molecular target: rat brain MAO-A (Rattus norvegicus (Rat), UniProt P21396); assay: In vitro inhibition of rat brain MAO-A (14C-5-HT substrate); format: biochemical
Procedure: Rats are decapitated and the brains quickly taken into a weighted ice-cold sucrose buffer (0.32 M) and their weights determined. All subsequent procedures are performed at 0° C. The brains are homogenized in 0.32 M sucrose (one part tissue to 20 parts sucrose) in a Teflon glass homogenizer followed by the addition of sucrose buffer to a final concentration of 10% homogenate. The homogenates are centrifuged at 600 g for 15 min. The supernatant fractions are taken out and centrifuged at 4500 g for 30 min, the pellet diluted in 0.32 M sucrose buffer and kept frozen for later assaying of MAO. Protein concentration is determined with Bradford reagent at λ=595 nm, using BSA as a standard.
MAO-A and MAO-B activities are determined in rat brain homogenate in vitro following incubation with varying concentrations of the test compounds.
The activity of MAO-A and MAO-B was determined by the adapted method of Tipton & Youdim (Tipton K F, O'Sullivan J, Youdim M B, 1983, Encyclopedia of Neuroscience, 2004, G. Adelman and B. H. Smith, Elsevier). The test compound was added to a suitable dilution of the enzyme preparation (70 μg protein for MAO-B and 150 μg MAO-A assay) in 0.1 M phosphate buffer (pH 7.4). The mixture was incubated together with […], a specific inhibitor of MAO-B (for determination of MAO-A) or 0.05 M clorgylin, a specific inhibitor of MAO-A (for determination of MAO-B). Incubation was carried for 0.5 or 1 h at 37° C. before addition of ^14C-5-hydroxytryptamine binoxalate (5-HT) (100 or 400 μM) for determination of MAO-A, or ^14C-phenylethylamine (^14C-PEA) 100 or 400 μM for determination of MAO-B, and incubation continued for 30 min or 20 min, respectively. The reaction was stopped with 2 M ice-cold citric acid, and the metabolites were extracted and determined by liquid-scintillation counting in cpm units. […]
MAO-A and MAO-B activity was measured using radioactive substrates. The substrate for MAO-A was 5 HT and for MAO-B was PEA. When measuring the activity of MAO-A, the MAO-B activity was inhibited with deprenyl and when measuring the activity of MAO-B the activity of MAO-A was inhibited with clorgylin. Blank samples were produced using TCP to inhibit both of the enzymes. The metabolites were extracted to toluene and read in a β-counter. The results are expressed in relative activity and normalized to the amount of protein in the tissue.

[3] = molecular target: MAO-B (Mus musculus (Mouse), UniProt Q8BW75); assay: In vivo MAO-B inhibition in mice after a single i.p. injection; settings: one hour later
Procedure: For the MAO-inhibition study, mice (6 mice in each group) were injected intraperitoneally (i.p.) with compound 3 at the dosage of 5 or 10 mg/kg; or with M30 at the dosage of 10 mg/kg. Control mice received saline (0.1 mL) i.p. One hour later the mice were killed by cervical dislocation, while striatum and small intestine were removed rapidly and frozen in liquid nitrogen for further analysis. FIGS. 3 and 4 show MAO-A/MAO-B in vivo activity of compound 3 compared to the activity of M30. FIG. 3 presents an MAO inhibition in striatum, and FIG. 4 presents an MAO inhibition in intestine. The percent inhibition was computed based on comparison to control animals.

[4] = tested on: HepG2 cells; assay: Cytotoxicity in presence and absence of exogenous iron, HepG2; format: cell-based, human
Procedure: (§1) The potential of compound 3 to be toxic in the presence of free iron was also tested. The iron complexation method was based on the method of Leanderson and Tagesson (Carcinogenesis, 17, 545-550, 1996) with some modifications. Iron (III) was prepared from ferric ammonium citrate (Sigma, F5879) at 80 mM in sterile distilled water. Compound 3 was prepared at a 200 mM concentration in DMSO. Before each experiment, the freshly prepared iron (III) solution was diluted to 0.4 mM in PBS II (PBS containing 0.90 mM Ca^2+ and 0.49 mM Mg^2+). Compound 3 stock solutions were diluted to 2, 0.2, and 0.02 mM with PBS II. Equal volumes of the 0.4 mM iron (III) solution and compound 3 solutions were added together to prepare iron/test article complex solutions containing 1, 0.1, and 0.01 mM compound 3 and 0.2 mM iron (III). The compound 3 DMSO stock solution was diluted in PBS II at 1, 0.1, or 0.01 mM and used as compound 3 control without iron. An equal volume of the 0.4 mM iron (III) solution was diluted in PBS II to prepare a control containing only iron.
(§2) The medium was removed from the plated cells (both cell lines) and replaced with fresh medium (90 μL). Iron/compound 3 complex or compound 3 in PBS II without iron was added to cells in triplicate (10 μL) to final compound 3 concentrations of 100, 10, and 1 μM and an iron (III) concentration of 20 μM. Wells containing no cells were used as the background control. PBS II was run as vehicle control. Iron only was run at a final concentration of 20 μM.
(§3) Cell viability was determined as described above and cytotoxicity was compared between treatments with and without iron complexation.

[5] = tested on: SHSY-5Y cells; assay: Cytotoxicity in presence and absence of exogenous iron, SH-SY5Y; format: cell-based, human
Procedure: as §1, §2, §3

[6] = with iron (20 μM), compound 1 μM
[7] = with iron (20 μM), compound 10 μM
[8] = with iron (20 μM), compound 100 μM

Sequence of rat brain MAO-A (P21396 whole entry): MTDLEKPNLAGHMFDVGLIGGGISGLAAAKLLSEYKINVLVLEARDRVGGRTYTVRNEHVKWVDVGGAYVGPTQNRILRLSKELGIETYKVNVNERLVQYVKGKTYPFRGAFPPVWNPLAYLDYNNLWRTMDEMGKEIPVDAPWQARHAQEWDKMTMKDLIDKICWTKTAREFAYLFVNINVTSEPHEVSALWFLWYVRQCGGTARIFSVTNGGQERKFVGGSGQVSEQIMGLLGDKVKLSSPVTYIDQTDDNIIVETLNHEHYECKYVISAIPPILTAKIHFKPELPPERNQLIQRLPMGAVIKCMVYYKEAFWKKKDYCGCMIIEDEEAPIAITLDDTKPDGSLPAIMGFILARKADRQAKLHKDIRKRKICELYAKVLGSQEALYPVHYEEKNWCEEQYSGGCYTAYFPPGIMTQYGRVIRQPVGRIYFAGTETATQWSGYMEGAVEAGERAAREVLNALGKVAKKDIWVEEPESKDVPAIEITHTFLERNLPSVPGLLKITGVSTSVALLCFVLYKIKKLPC
Sequence of MAO-B (Q8BW75 whole entry): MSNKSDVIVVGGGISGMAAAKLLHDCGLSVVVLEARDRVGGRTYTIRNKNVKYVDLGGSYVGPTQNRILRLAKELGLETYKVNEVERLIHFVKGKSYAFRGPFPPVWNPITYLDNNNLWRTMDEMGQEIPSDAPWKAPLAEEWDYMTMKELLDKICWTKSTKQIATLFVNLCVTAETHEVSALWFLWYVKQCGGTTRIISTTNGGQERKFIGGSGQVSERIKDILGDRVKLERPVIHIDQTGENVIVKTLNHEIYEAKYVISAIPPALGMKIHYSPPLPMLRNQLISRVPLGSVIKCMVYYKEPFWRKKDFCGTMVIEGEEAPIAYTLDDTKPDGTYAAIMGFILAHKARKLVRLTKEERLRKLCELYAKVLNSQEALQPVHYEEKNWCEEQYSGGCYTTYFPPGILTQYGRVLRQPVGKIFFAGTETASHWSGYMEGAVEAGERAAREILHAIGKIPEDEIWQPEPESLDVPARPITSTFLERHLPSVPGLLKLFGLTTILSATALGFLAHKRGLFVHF

## C#CCN(C)CCc1ccc(O)c2ncccc12 [Compound 3, 5-[2-(methyl-2-propyn-1-ylamino)ethyl]-8-quinolinol]
[1]; PBS and/or saline solution
  Stability in aqueous solution (in words): highly stable chemically; also recorded: ^+Compound 3 was stable for up to 48 hours at 25 °C in both saline and PBS
[1]; PBS, 0.5 hours
  Amount of compound remaining (%): 100%
[1]; PBS, 2 hours
  Amount of compound remaining (%): 100%
[1]; PBS, 20 hours
  Amount of compound remaining (%): 100%
[1]; PBS, 48 hours
  Amount of compound remaining (%): 100%
[1]; saline, 0.5 hours
  Amount of compound remaining (%): 100%
[1]; saline, 2 hours
  Amount of compound remaining (%): 100%
[1]; saline, 20 hours
  Amount of compound remaining (%): 100%
[1]; saline, 48 hours
  Amount of compound remaining (%): 100%
[2]
  IC50: 70 to 90 nM
[2]; rat brain
  Inhibition of rat brain MAO-A in vitro (in words): potent inhibitors
[2]; read-out: MAO-A IC50, estimated from the data in FIG. 1, rat brain MAO-A
  IC50: 70 to 90 nM
[3]; 5 or 10 mg/kg
  MAO-B inhibition in striatum: inhibited in a dose responsive fashion
[3]; small intestine
  MAO-B inhibition in intestine: Reduced inhibition in the intestinal tissue versus striatal tissue
[4]; [6]
  HepG2 cell death (%): 4.8%
[4]; [7]
  HepG2 cell death (%): 11.9%
[4]; [8]
  HepG2 cell death (%): 99.5%
[4]; without iron, compound 1 μM
  HepG2 cell death (%): −0.1%
[4]; without iron, compound 10 μM
  HepG2 cell death (%): −0.7%
[4]; without iron, compound 100 μM
  HepG2 cell death (%): −3.6%
[5]; with exogenous iron (20 μM), compound 1 μM
  SHSY-5Y cells alive: 100%
[5]; [6]
  SHSY-5Y cell death (%): −1.0%
[5]; [7]
  SHSY-5Y cell death (%): 7.6%
[5]; [8]
  SHSY-5Y cell death (%): 90.3%
[5]; without iron, compound 1 μM
  SHSY-5Y cell death (%): 2.1%
[5]; without iron, compound 10 μM
  SHSY-5Y cell death (%): 0.8%
[5]; without iron, compound 100 μM
  SHSY-5Y cell death (%): 0.4%
